Experimental data: US20210387966A1, “2-AMINO-N-HETEROARYL-NICOTINAMIDES AS NAV1.8 INHIBITORS” (Merck Sharp & Dohme Corp., priority 2018, published 2021)

Biological target: T1, human Nav1.8 channels (Homo sapiens, UniProt Q9Y5Y9)
T1 construct: expressed in transfected cells
Assay: Nav1.8 Qube automated patch-clamp assay
Type: cell-based
Details: human Nav1.8 stably expressed in HEK 293 cells; whole-cell voltage clamp, room temperature; resting or inactivated state not specified; read-out: IC50 values (nM) for Examples in the Nav1.8 Qube Assay
Method: Compounds were tested on human Nav1.8 and Nav1.5 channels stably expressed in human embryo kidney (HEK) 293 cells. Sodium current measurements on Qube® were conducted as follows: automated 384-well patch-clamp assays on the Qube® platform (Sophion Biosciences) were used to measure the inhibition of sodium flow through human Nav1.8 and Nav1.5 channels. Whole-cell voltage-clamp recordings were performed in QChips® (Sophion Biosciences) at room temperature. Nav1.8 current measurements on Qube® were obtained as follows: Nav1.8 currents were elicited with a 10 second 1 Hertz (Hz) pulse train from a holding potential of −90 millivolts (mV), delivered to the cells once per minute in the control condition (DMSO only) and after compound addition. The 1 hertz pulse train stimulation consisted of ten test pulses to 10 millivolt (mV) for 20 milliseconds (ms), each of which was followed by a 980 millisecond repolarization to −67 millivolts. At the end of the 10 second pulse train stimulation, a second hyperpolarization step to −100 millivolt (mV) was used to recover Nav1.8 from fast inactivation. The peak currents elicited by the 1st and 10th test pulses were used to determine IC50 values for resting inhibition and inactivated state inhibition. Nav1.5 current measurements on Qube® were obtained as follows: Nav1.5 currents were elicited with a 20 second 3 Hertz pulse train in the control condition (DMSO only) and after compound addition. The pulse train consisted of sixty 20 millisecond test pulses to 0 millivolt from a holding potential of −80 millivolt (mV). The average peak currents elicited by the last 3 test pulses were used to determine IC50 values for Nav1.5 inhibition.
The following buffers were used for the Qube® recordings: External buffer for Nav1.8 Qube® recording: 150 NaCl, 2 CaCl2, 5 KCl, 1 Mg Cl2, 10 HEPES, 12 Dextrose; External buffer for Qube® Nav1.5 recording: 120 N-Methyl-D-Glucamine, 40 NaCl, 1 KCl, 2.7 CaCl2, 5 HEPES, 0.5 MgCl2: and Internal buffer for Qube® recording: 120 CsF, 30 CsCl, 10 EGTA, 5 HEPES, 5 NaF, 2 MgCl2.
For all Qube® experiments offline analysis was used to determine percent inhibition as a function of drug concentration. IC50 values were determined by fitting to the Hill equation.

T1 sequence (Q9Y5Y9 whole entry): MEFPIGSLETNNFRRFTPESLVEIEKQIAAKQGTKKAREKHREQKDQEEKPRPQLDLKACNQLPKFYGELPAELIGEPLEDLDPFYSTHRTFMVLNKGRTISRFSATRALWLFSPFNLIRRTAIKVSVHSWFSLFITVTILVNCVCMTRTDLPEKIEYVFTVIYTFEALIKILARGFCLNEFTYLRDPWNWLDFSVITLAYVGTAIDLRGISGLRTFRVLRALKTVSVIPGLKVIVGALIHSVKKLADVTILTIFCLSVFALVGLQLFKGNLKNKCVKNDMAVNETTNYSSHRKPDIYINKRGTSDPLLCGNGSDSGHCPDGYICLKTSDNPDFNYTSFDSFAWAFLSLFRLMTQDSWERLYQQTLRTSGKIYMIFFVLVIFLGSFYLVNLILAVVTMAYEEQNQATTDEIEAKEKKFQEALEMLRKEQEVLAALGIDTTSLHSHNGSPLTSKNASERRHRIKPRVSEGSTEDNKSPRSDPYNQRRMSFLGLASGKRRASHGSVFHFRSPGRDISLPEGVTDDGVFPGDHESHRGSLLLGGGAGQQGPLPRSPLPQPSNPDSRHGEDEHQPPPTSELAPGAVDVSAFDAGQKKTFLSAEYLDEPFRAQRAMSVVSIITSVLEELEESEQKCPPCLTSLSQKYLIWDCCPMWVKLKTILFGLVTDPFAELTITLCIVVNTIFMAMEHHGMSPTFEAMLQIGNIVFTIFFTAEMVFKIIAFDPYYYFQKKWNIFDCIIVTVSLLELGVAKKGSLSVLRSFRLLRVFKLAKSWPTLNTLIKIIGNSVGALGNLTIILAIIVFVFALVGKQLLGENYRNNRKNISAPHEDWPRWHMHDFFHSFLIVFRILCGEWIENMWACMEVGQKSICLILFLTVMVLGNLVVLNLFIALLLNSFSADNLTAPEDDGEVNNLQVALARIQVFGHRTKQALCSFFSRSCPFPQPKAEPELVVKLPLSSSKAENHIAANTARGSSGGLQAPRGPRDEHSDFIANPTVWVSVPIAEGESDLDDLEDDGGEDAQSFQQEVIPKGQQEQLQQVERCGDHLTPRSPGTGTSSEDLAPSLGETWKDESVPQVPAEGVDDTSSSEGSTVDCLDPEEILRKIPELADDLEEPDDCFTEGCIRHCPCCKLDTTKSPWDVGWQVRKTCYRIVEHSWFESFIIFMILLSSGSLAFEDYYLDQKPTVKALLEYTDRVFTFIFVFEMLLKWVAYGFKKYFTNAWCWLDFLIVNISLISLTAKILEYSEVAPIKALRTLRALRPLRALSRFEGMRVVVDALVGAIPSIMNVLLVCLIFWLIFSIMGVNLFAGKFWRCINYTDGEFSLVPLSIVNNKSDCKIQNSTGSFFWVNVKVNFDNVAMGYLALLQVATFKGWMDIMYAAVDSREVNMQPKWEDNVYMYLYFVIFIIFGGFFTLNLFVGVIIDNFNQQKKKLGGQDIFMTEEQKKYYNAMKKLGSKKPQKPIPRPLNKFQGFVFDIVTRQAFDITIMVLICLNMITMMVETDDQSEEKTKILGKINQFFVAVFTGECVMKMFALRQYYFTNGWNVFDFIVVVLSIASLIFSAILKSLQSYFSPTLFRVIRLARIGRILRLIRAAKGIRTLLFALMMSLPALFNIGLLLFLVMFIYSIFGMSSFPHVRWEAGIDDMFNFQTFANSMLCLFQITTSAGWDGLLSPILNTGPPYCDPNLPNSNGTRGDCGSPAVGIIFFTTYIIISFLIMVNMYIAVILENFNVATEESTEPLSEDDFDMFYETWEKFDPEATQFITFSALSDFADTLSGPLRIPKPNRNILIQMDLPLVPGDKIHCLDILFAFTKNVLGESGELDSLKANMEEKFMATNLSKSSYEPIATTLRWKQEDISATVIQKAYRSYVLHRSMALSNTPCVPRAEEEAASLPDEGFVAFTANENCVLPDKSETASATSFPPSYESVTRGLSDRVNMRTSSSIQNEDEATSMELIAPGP

Row | IC50 | Structure (SMILES)
1 | 2770 nM | Cc1cncc(NC(=O)c2cc(C(F)(F)F)cnc2N2CCCCCC2)c1 [Example 195, 2-(azepan-1-yl)-N-(5-methyl-3-pyridyl)-5-(tri-fluoromethyl)-pyridine-3-carboxamide]
2 | 12 nM | Cc1nc(N2CCC3(CC2)CC3)c(C(=O)Nc2cc[nH]c(=O)c2)c(C)c1Cl [Example 209, 5-chloro-4,6-dimethyl-N-(2-oxo-1,2-dihydropyridin-4-yl)-2-(6-azaspiro[2.5]octan-6-yl)nicotinamide]
3 | 31 nM | Cc1nc(N2CCC3(CC2)CC3)c(C(=O)Nc2cncc(S(N)(=O)=O)c2)c(C)c1Cl [Example 190, 2-(6-azaspiro[2.5]octan-6-yl)-5-chloro-4,6-dimethyl-N-(5-sulfamoyl-3-pyridyl)pyridine-3-carboxamide]
4 | 363 nM | NS(=O)(=O)c1cc(NC(=O)c2cc(N3CCCCC3)cnc2N2CCC(F)(F)CC2)ccn1 [Example 206, 2-(4,4-difluoropiperidin-1-yl)-5-(piperidin-1-yl)-N-(2-sulfamoylpyridin-4-yl)nicotinamide]
5 | 6.6 nM | Cc1nc(C2CCC(C)CC2)c(C(=O)Nc2ccnc(S(N)(=O)=O)c2)c(C)c1Cl (stereo not shown) [Example 215, 5-chloro-4,6-dimethyl-2-(4-methylcyclohexyl)-N-(2-sulfamoylpyridin-4-yl)nicotinamide]
6 | 3.8 nM | NS(=O)(=O)c1cc(NC(=O)c2cc(C(F)(F)F)c(C3CC3)nc2N2CCCC(F)(F)CC2)ccn1 [Example 185, 6-cyclopropyl-2-(4,4-difluoroazepan-1-yl)-N-(2-sulfamoylpyridin-4-yl)-5-(trifluoromethyl)nicotinamide]
7 | 1290 nM | O=C(Nc1cncc(F)c1)c1cc(C(F)(F)F)cnc1N1CCCCCC1 [Example 186, 2-(azepan-1-yl)-N-(5-fluoropyridin-3-yl)-5-(trifluoromethyl)nicotinamide]
8 | 3.2 nM | Cc1nc(C2CCCCCC2)c(C(=O)Nc2ccnc(S(N)(=O)=O)c2)c(C)c1Cl [Example 217, 5-chloro-2-cycloheptyl-4,6-dimethyl-N-(2-sulfamoylpyridin-4-yl)nicotinamide]
9 | 357 nM | Cc1nc(N2CCCCC2)c(C(=O)Nc2cc[nH]c(=O)c2)c(C)c1Cl [Example 211, 5-chloro-4,6-dimethyl-N-(2-oxo-1,2-dihydropyridin-4-yl)-2-(piperidin-1-yl)-nicotinamide]
10 | 1.3 nM | Cc1nc(N2CCCCCC2)c(C(=O)Nc2ccnc(S(N)(=O)=O)c2)c(C)c1Cl [Example 201, 2-(azepan-1-yl)-5-chloro-4,6-dimethyl-N-(2-sulfamoylpyridin-4-yl)nicotinamide]
11 | 77 nM | C[C@@H]1CN(c2ncc(C(F)(F)F)cc2C(=O)Nc2ccnc(C#N)c2)C[C@H](C)C1(F)F [Example 150, N-(2-cyano-4-pyridyl)-2-[(3S,5R)-4,4-difluoro-3,5-dimethyl-1-piperidyl]-5-(tri-fluoromethyl)pyridine-3-carboxamide]

Further lines, the molecule ahead of its results:

Row | Structure (SMILES) | IC50
12 | CC1CN(c2ncc(C(F)(F)F)cc2C(=O)Nc2ccnc(S(C)(=O)=O)c2)CCC1(F)F (single isomer, unassigned) [Example 148, 2-[(3R or 3S)-4,4-difluoro-3-methyl-1-piperidyl]-N-(2-methylsulfonyl-4-pyridyl)-5-(trifluoro-methyl)pyridine-3-carboxamide] | 26 nM
13 | COc1nc(N2CCCC(F)(F)CC2)c(C(=O)Nc2ccnc(S(=O)(=O)NC(C)(C)C)c2)cc1Cl [Example 42, N-[2-(tert-butylsulfamoyl)pyridin-4-yl]-5-chloro-2-(4,4-difluoroazepan-1-yl)-6-methoxypyridine-3-carboxamide] | 341 nM
14 | COc1nc(N2CCCC(F)(F)CC2)c(C(=O)Nc2ccnc(S(N)(=O)=O)c2)cc1Cl [Example 41, 5-chloro-2-(4,4-difluoroazepan-1-yl)-6-methoxy-N-(2-sulfamoylpyridin-4-yl)pyridine-3-carboxamide] | 5.1 nM
15 | COc1ccc(C(=O)Nc2ccnc(S(N)(=O)=O)c2)c(N2CCCC(F)(F)CC2)n1 [Example 142, 2-(4,4-difluoroazepan-1-yl)-6-methoxy-N-(2-sulfamoylpyridin-4-yl)nicotinamide] | 29 nM
16 | CC1CN(c2ncc(C(F)(F)F)cc2C(=O)Nc2ccnc(S(N)(=O)=O)c2)CCC(C(F)(F)F)O1 (single isomer, unassigned) [Example 123, 2-((2S,7S or 2R,7R)-2-methyl-7-(trifluoromethyl)-1,4-oxazepan-4-yl)-N-(2-sulfamoylpyridin-4-yl)-5-(trifluoromethyl)nicotinamide] | 28 nM
17 | CS(=O)(=O)c1cncc(NC(=O)c2cc(C(F)(F)F)cnc2N2CCCCCC2)c1 [Example 6, 2-(azepan-1-yl)-N-(5-(methylsulfonyl)pyridin-3-yl)-5-(trifluoromethyl)nicotinamide] | 355 nM
18 | CC12CCN(c3ncc(C(F)(F)F)cc3C(=O)Nc3ccnc(S(N)(=O)=O)c3)CC1C2(F)F (single isomer, unassigned) [Example 62, 2-[(1R,6R or 1S,6S)-7,7-difluoro-6-methyl-3-azabicyclo[4.1.0]heptan-3-yl]-N-(2-sulfamoyl-4-pyridyl)-5-(trifluoromethyl)pyridine-3-carboxamide] | 105 nM
19 | Cc1nc(N2CCCC(F)(F)CC2)c(C(=O)Nc2ccnc(S(N)(=O)=O)c2)cc1C#N [Example 25, 5-cyano-2-(4,4-difluoroazepan-1-yl)-6-methyl-N-(2-sulfamoylpyridin-4-yl)nicotinamide] | 5.4 nM
20 | CC1CCN(c2ncc(C(F)(F)F)cc2C(=O)Nc2ccnc(S(N)(=O)=O)c2)CCC1(F)F (stereo not shown) [Example 115, 2-(4,4-difluoro-5-methylazepan-1-yl)-N-(2-sulfamoylpyridin-4-yl)-5-(trifluoromethyl)pyridine-3-carboxamide] | 1.6 nM
21 | CC1CN(c2ncc(C(F)(F)F)cc2C(=O)Nc2ccnc(S(C)(=O)=O)c2)CCC1(F)F (single isomer, unassigned) [Example 149, 2-[(3S or 3R)-4,4-difluoro-3-methyl-1-piperidyl]-N-(2-methylsulfonyl-4-pyridyl)-5-(trifluoro-methyl)pyridine-3-carboxamide] | 57 nM
22 | NS(=O)(=O)c1cc(NC(=O)c2cc(C(F)(F)F)cnc2N2CCC3C(C2)C3(F)F)ccn1 (single isomer, unassigned) [Example 70, 2-((1R,6R or 1S,6S)-7,7-difluoro-3-azabicyclo[4.1.0]heptan-3-yl)-N-(2-sulfamoylpyridin-4-yl)-5-(trifluoromethyl)nicotinamide] | 41 nM
23 | O=C(Nc1nccc(O)n1)c1cc(C(F)(F)F)cnc1N1CCC(F)(F)CC1 [Example 2, 2-(4,4-difluoropiperidin-1-yl)-N-(4-hydroxypyrimidin-2-yl)-5-(trifluoromethyl)nicotinamide] | 2190 nM
24 | CC1(C)CN(c2ncc(C(F)(F)F)cc2C(=O)Nc2ccnc(S(N)(=O)=O)c2)CCO1 [Example 88, 2-(2,2-dimethylmorpholin-4-yl)-N-(2-sulfamoyl-4-pyridyl)-5-(trifluoromethyl)pyridine-3-carboxamide] | 275 nM
25 | CC1(O)CCCN(c2ncc(C(F)(F)F)cc2C(=O)Nc2ccnc(S(N)(=O)=O)c2)C1 (stereo not shown) [Example 112, 2-(3-hydroxy-3-methyl-1-piperidyl)-N-(2-sulfamoyl-4-pyridyl)-5-(trifluoromethyl)pyridine-3-carboxamide] | 8410 nM
